{
  "source": "patent US10669537B2",
  "about": "“Mutagenizing intracellular nucleic acids” (priority 2016, dated 2020)",
  "key": {"[1]": {"system": "Saccharomyces cerevisiae BY4741 URA3+", "experiment": "5-FOA resistance frequency after URA3 mutagenesis", "format": "cell-based", "conditions": "one cycle of URA3 soft-randomized oligo pool mutagenesis; 5-FOA SD agar plates", "description": "To perform mutagenesis without necessitating additional genomic modifications and thus keeping the flexibility of the prokaryotic, pORTMAGE-based approach, the wild-type yeast homologous recombination system was employed to set-up overlapping, soft-randomized oligo pool-mediated mutagenesis. As the target, the endogenous URA3 gene in Saccharomyces cerevisiae BY4741 URA3+(SEQ ID NO:221), encoding orotidine 5-phosphate decarboxylase was chosen. Loss-of-function URA3 mutants can be readily selected based on their 5-Fluoroorotic Acid (5-FOA)-resistant phenotype on 5-FOA containing agar plates (DiCarlo et al. 2013). Therefore, mutagenesis was assayed as the fraction of resistant cells towards 5-FOA in diversified cell populations compared with the frequency of an unmutagenized control. Using 11 overlapping spiked oligo pools (SEQ ID NO:200-SEQ ID NO:210), a single overlapping, soft-randomized oligo pool-mediated mutagenesis cycle was performed.\nSpecifically, overlapping, soft-randomized oligos for S. cerevisiae URA3 were designed to target the non-coding strand of URA3 (YEL021W, SEQ ID NO:221). Spiked oligonucleotides were synthesized as described in Example 1. Yeast-mutagenesis was performed by delivering oligonucleotides to S. cerevisiae BY4741 URA3+ cells by electroporation. […] As the next step, URA3 mutagenesis was assessed by measuring 5-fluoroorotic acid (5-FOA) resistance frequency. […]"}, "E. coli K-12 MG1655 [2]": {"system": "E. coli K-12 MG1655", "format": "cell-based, Escherichia coli", "conditions": "ciprofloxacin two-fold higher than wild-type MIC, LB agar", "procedure": "All four constituents were mutagenized along the full lengths of their corresponding protein-coding DNA regions in their native genomic context. Accordingly, a single round of rMAGE mutagenesis was performed in E. coli K-12 MG1655, using SEQ ID NO:37-SEQ ID NO:167.\nHowever, ciprofloxacin also has lower binding affinity to the homologous DNA topoisomerase IV complex (Khodursky, Zechiedrich, and Cozzarelli 1995). Therefore, mutagenesis at the target sites was assayed by a ciprofloxacin frequency-of-resistance assay."}, "E. coli K-12 MG1655 [3]": {"system": "E. coli K-12 MG1655", "conditions": "L28R", "procedure": "As a measure of the effect of each individual genotype, relative IC75 values for each of the corresponding mutants were determined and compared to the IC75 of the wild-type."}, "[4]": {"system": "parental Escherichia coli K-12 MG 1655", "procedure": "Subsequently, the genotype of around 1000 resistant mutants was determined by High-Throughput (HT) SMRT sequencing."}},
  "note": "Like-named read-outs stand apart in the source and are kept apart here.",
  "data": [
    {"smiles": "O=C(O)c1[nH]c(=O)[nH]c(=O)c1F", "note": "[5-FOA, 5-Fluoroorotic Acid]", "values": [
      {"measurement": "upregulation of the fraction of 5-FOA resistant cells compared to background level", "setting": "[1]", "value": 77, "unit": "fold"}
    ]},
    {"smiles": "O=C(O)c1cn(C2CC2)c2cc(N3CCNCC3)c(F)cc2c1=O", "note": "[ciprofloxacin]", "values": [
      {"measurement": "frequency of ciprofloxacin resistant variants", "setting": "E. coli K-12 MG1655 [2]; cell population mutagenized at gyrA, gyrB, parC, parE", "value": "10^−4"},
      {"measurement": "frequency of ciprofloxacin resistant variants", "setting": "E. coli K-12 MG1655 [2]; non-mutagenised control cell populations", "value": "1.83*10^−7"}
    ]},
    {"smiles": "COc1cc(Cc2cnc(N)nc2N)cc(OC)c1OC", "note": "[Trimethoprim, trimethoprim]", "values": [
      {"measurement": "Trimethoprim IC75 value", "setting": "E. coli K-12 MG1655 [3]; strain E. coli MG1655 1, folA C-58T, A26T, P39R", "value": 1162, "unit": "µg/mL"},
      {"measurement": "Trimethoprim IC75 value", "setting": "E. coli K-12 MG1655 [3]; strain E. coli MG1655 2, folA C-58T, A26T, P39R", "value": 1162, "unit": "µg/mL"},
      {"measurement": "Trimethoprim IC75 value", "setting": "E. coli K-12 MG1655 [3]; strain E. coli MG1655 3, folA C-58T, A26T, P39R", "value": 1346, "unit": "µg/mL"},
      {"measurement": "Trimethoprim IC75 value", "setting": "E. coli K-12 MG1655 [3]; strain E. coli MG1655 4, folA C-58T, A26T, P39R", "value": 1254, "unit": "µg/mL"},
      {"measurement": "Trimethoprim IC75 value", "setting": "E. coli K-12 MG1655 [3]; strain E. coli MG1655 5, folA C-58T, A26T, P39R", "value": 1162, "unit": "µg/mL"},
      {"measurement": "Trimethoprim IC75 value", "setting": "E. coli K-12 MG1655 [3]; strain E. coli MG1655 6, folA C-58T, A26T, P39R", "value": 1254, "unit": "µg/mL"},
      {"measurement": "Trimethoprim IC75 value", "setting": "E. coli K-12 MG1655 [3]; strain E. coli MG1655 7, folA C-58T", "value": 448, "unit": "µg/mL"},
      {"measurement": "Trimethoprim IC75 value", "setting": "E. coli K-12 MG1655 [3]; strain E. coli MG1655 8, folA C-58T, T-74A, N147D", "value": 448, "unit": "µg/mL"},
      {"measurement": "Trimethoprim IC75 value", "setting": "E. coli K-12 MG1655 [3]; strain E. coli MG1655 9, folA C-58T", "value": 610, "unit": "µg/mL"},
      {"measurement": "Trimethoprim IC75 value", "setting": "E. coli K-12 MG1655 [3]; strain E. coli MG1655 10, folA C-58T", "value": 610, "unit": "µg/mL"},
      {"measurement": "Trimethoprim IC75 value", "setting": "E. coli K-12 MG1655 [3]; strain E. coli MG1655 11, folA C-58T", "value": 518, "unit": "µg/mL"},
      {"measurement": "Trimethoprim IC75 value", "setting": "E. coli K-12 MG1655 [3]; strain E. coli MG1655 12, folA C-43T, C-58T, A26D, H45R", "value": 794, "unit": "µg/mL"},
      {"measurement": "growth on trimethoprim solid media", "setting": "[4]", "value": "cannot grow"}
    ]}
  ]
}
